# Experiments:
# Assay type in all cases: cell-based, human
# Calu-3 monolayers [1] = assay: Transepithelial short-circuit current (Isc) across unstimulated Calu-3 monolayers; settings: for transepithelial chloride currents in unstimulated tissue: compound added to mucosal (or serosal) perfusion, L-ascorbic acid 100 μM
# Experimental: Currents were recorded with a serosal-to-mucosal chloride gradient at 0 mV and pulses were obtained at 2 mV.
# Ascorbic acid (100 μM) was added as indicated. For comparison, ascorbic acid-stimulated chloride current was subsequently stimulated by the cAMP elevating agonist forskolin (20 μM, serosal). The CFTR activator genistein (20 mM) was then added to the mucosal perfusion as indicated. […] Currents were recorded with a serosal-to-mucosal chloride gradient at 0 mV and pulses were obtained at 2 mV.
# 100 μM ascorbic acid and forskolin (fsk, 20 μM, serosal) were added as indicated. The CFTR activator kaempferol (20 μM) was subsequently added, as indicated. […] Currents were recorded with a serosal-to-mucosal chloride gradient at 0 mV and pulses were obtained at 2 mV.
# This experiment was performed using unstimulated tissue.
# Kinetic analysis is depicted on the right panel and estimated half maximal stimulatory dose was 11.7 μM. […]
# For comparison, ascorbic acid-stimulated chloride currents were stimulated by the cAMP elevating agonist forskolin (20 μM, serosal).
# Stimulated C1 currents returned to baseline after 5-15 min.
# Calu-3 monolayers [2] = assay: Transepithelial chloride currents in forskolin-prestimulated Calu-3 monolayers; settings: prestimulated with 10 μM forskolin
# Experimental: FIGS. 13A-13C illustrate the effect of additional representative flavonoids and isoflavonoids on chloride current in epithelial cells. FIG. 13A is a graph showing the stimulation of transepithelial chloride currents by reservatrol (100 μM), flavanone (100 μM), flavone (200 μM), apigenin (20 μM), apigenin 7-O-neohesperidoside (30 μM), kaempferol (20 μM), fisetin (100 μM), quercetin (30 μM), rutin (30 μM), genistein (30 μM), daidzein (50 μM), biochanin A (100 μM) and prunetin (100 μM) in Calu-3 monolayers. Experiments were performed in the presence of 10 μM forskolin. Stimulated currents are plotted relative to forskolin stimulated increase (forskolin stimulated currents are 100%). FIG. 13B is a recording showing the effect of 7,4′-dihydroxyflavone on chloride current in unstimulated tissue. […] Increasing concentrations of 7,4′-dihydroxyflavone (as indicated in μM) were added to mucosal side and dose-dependently stimulated chloride currents. Currents were recorded with a serosal-to-mucosal chloride gradient at 0 mV and pulses were obtained at 2 mV. FIG. 13C is a recording illustrating the effect of trimethoxy-apigenin. […] Increasing concentrations of trimethoxy-apigenin (as indicated in μM) were added to mucosal side and dose-dependently stimulated chloride currents. Experiment was performed on unstimulated tissue. Currents were recorded with a serosal-to-mucosal chloride gradient at 0 mV and pulses were obtained at 2 mV.
# Airway epithelial cells were prestimulated with 10 μM forskolin. The percent increase in chloride current was then determined following treatment with a series of polyphenolic compounds. FIG. 13A summarizes the stimulatory effect of these compounds.
# Calu-3 airway epithelia = assay: Short-circuit current (transepithelial Cl secretion) across Calu-3 airway epithelia, Examples 12-13
# Experimental: (§1) Short-circuit current measurement. Calu-3 or CF15 cells were grown as monolayers, mounted in Ussing chambers and short-circuit current (ISC) was recorded as described (Illek, B. & Fischer, H. (1998) Am. J. Physiol. 275, L902-L910). At 20-50 second intervals, transepithelial voltage was clamped from zero to 2 mV and the transepithelial resistance (Rte) was calculated. A serosa-to-mucosa-directed Cl gradient was applied. Serosal Ussing chamber solution contained (in mM): 120 NaCl, 20 NaHCO3, 5 KHCO3, 1.2 NaH2PO4, 5.6 glucose, 2.5 CaCl2, 1.2 MgCl2. In mucosal Ussing chamber solutions, all Cl salts were exchanged for gluconate salts.
# Vitamin C activation of CFTR-mediated Cl secretion was studied in Calu-3 cells grown as epithelial monolayers (FIG. 21A). Exposure of the apical membrane to maximal concentrations of L-ascorbic acid stimulated transepithelial Cl currents (ISC) in a sustained fashion to 96±11 μA/cm^2 (n=22). Subsequent addition of forskolin further increased ISC to 141±33 μA/cm^2 (n=9, p=0.029). On average, Cl secretion was stimulated by ascorbate to 68% of the currents elicited by forskolin. The Cl channel blocker diphenylcarboxylate (DPC, 4 mM) was added as a measure for the transcellular Cl current decreasing ISC to 30±4 μA/cm^2. When Cl secretion was first stimulated with forskolin (to 106±23 μA/cm^2, n=4) ascorbate had no significant effect on Ise (at 100 μM: ΔICl=−1.5±3.5 μA/cm^2, n=4, not different from zero, one-sample t test). Half-maximal stimulatory constant averaged 36.5±2.9 μm as determined from transepithelial dose-response experiments.
# Furthermore, the response to ascorbate in Na-containing medium was blunted in the presence of phloretin, a known inhibitor of the sodium-dependent vitamin C transporters SVCT1 and SVCT2 (Tsukaguchi, H., Tokui, T., Mackenzie, B., Berger, U. V., Chen, X. Z., Wang, Y., Brubaker, R. F. & Hediger, M. A. (1999) Nature 399, 70-75). […] Molecular expression of SVCT1 and SVCT2 transcripts in Calu-3 cells was verified using RT-PCR and DNA sequencing analysis. For comparison, human ciliated tracheal epithelial cultures (hTE) and a nasal cystic fibrosis airway cell line (CF15) were included. […] The recombinantly expressed SVCT2-EGFP fusion protein was targeted exclusively to the apical membrane pole of CF15 epithelia.
# [3] = test system: wildtype CFTR-corrected CF15 monolayers; assay: Short-circuit current across wildtype CFTR-corrected CF15 monolayers; settings: forskolin added on ascorbate-stimulated current
# Experimental: Human airway cell culture. The human submucosal serous gland-like cell line Calu-3, the CF nasal epithelial cell line homozygous for ΔF508 CFTR (CF15) and human tracheal primary cultures (hTE) were cultured as described (Jefferson, D. M., Valentich, J. D., Marini, F. C., Grubman, S. A., Iannuzzi, M. C., Dorkin, H. L., Li, M., Klinger, K. W. & Welsh, M. J. (1990) Am. J. Physiol. 259, L496-L505. Sachs, L. A., Finkbeiner, W. E. & Widdicombe, J. H. (2003) In Vitro Cell Dev. Biol. Anim. 39, 56-62.). Wildtype CFTR-corrected CF15 cells were generated via adenovirus-mediated gene transfer. Growth media were nominally free of ascorbic acid (<10 μm, University Pathology Inc., Salt Lake City, Utah). For transepithelial measurements cells were grown on permeable filter inserts and used after 3 to 10 days.
# as §1
# The CF15 cell line was used to determine whether ascorbate-stimulated Cl currents were solely mediated by the CFTR Cl conductance. The CF15 cell line is characterized by the absence of functional CFTR in the apical plasma membrane but the presence of other non-CFTR Cl conductances (Jefferson, D. M., Valentich, J. D., Marini, F. C., Grubman, S. A., Iannuzzi, M. C., Dorkin, H. L., Li, M., Klinger, K. W. & Welsh, M. J. (1990) Am. J. Physiol. 259, L496-L505). A concentration of L-ascorbic acid that lay within the upper plateau of the dose response curve (500 μm) was applied and ascorbate-stimulated Cl currents in CF15 vs. wildtype CFTR-corrected CF15 monolayers was compared (FIG. 23A). […] The defective response to L-ascorbic acid was reversed in wildtype CFTR-corrected CF15 epithelia such that ISC responded promptly to L-ascorbic acid (ΔISC=7.5±0.5 μA/cm^2, n=6). The ascorbate-stimulated current was further activated by the cAMP agonist forskolin and total stimulated ISC averaged 12.1±1.1 μA/cm^2 (FIG. 4B). The ascorbate-stimulated Cl current reached 60±15% of the forskolin-stimulated current in CFTR-corrected CF15 monolayers, which was close to the corresponding findings in Calu-3 monolayers (68%, see FIG. 21A). The absence of ascorbate-stimulated Cl currents in CF15 monolayers supports the notion that non-CFTR Cl conductances were not activated by L-ascorbic acid.
# In this example, chloride currents stimulated by L-ascorbate or D-ascorbate were measured in CF15 versus. wildtype CFTR-corrected CF15 monolayers. A concentration of L-ascorbate (1 mM) or D-isoascorbate (300 μm) that lay within the upper plateau of the dose-response curve was applied to cells and the resulting chloride currents stimulated in CF15 versus wildtype CFTR-corrected CF15 monolayers were measured (FIG. 25 A-H). All experiments were performed in the presence of the sodium channel blocker amiloride. […]
# [4] = dehydroascorbic acid 10, 100 or 300 μM
compound,measurement,setting,value
"O=c1cc(-c2ccc(O)cc2)oc2cc(O)ccc12 [7,4′-Dihydroxyflavone]",transepithelial chloride currents in unstimulated tissue,Calu-3 monolayers [1]; [4],dose-dependently stimulated transepithelial C1 currents
C[C@@H]1O[C@@H](O[C@H]2[C@H](Oc3cc(O)c4c(=O)cc(-c5ccc(O)cc5)oc4c3)O[C@H](CO)[C@@H](O)[C@@H]2O)[C@H](O)[C@H](O)[C@H]1O [apigenin 7-O-neohesperidoside],chloride currents further stimulated to (forskolin stimulated currents are 100%),Calu-3 monolayers [2]; compound at 30 μM,155%
O=c1c(-c2ccc(O)cc2)coc2cc(O)ccc12 [daidzein],chloride currents further stimulated to (forskolin stimulated currents are 100%),Calu-3 monolayers [2]; compound at 50 μM,162%
"O=C1O[C@H](C(O)CO)C(=O)C1=O (stereo partly drawn) [dehydroascorbic acid, L-threo-2,3-Hexodiulosonic acid γ-lactone]",transepithelial chloride currents in unstimulated tissue,Calu-3 monolayers [1]; [4],effectively stimulated transepithelial chloride currents
same,stimulated Cl currents returned to baseline after,Calu-3 monolayers [1]; [4],5 to 15 min
O=C1CC(c2ccccc2)Oc2ccccc21 (stereo not drawn) [flavanone],chloride currents further stimulated to (forskolin stimulated currents are 100%),Calu-3 monolayers [2]; compound at 100 μM,140%
O=c1cc(-c2ccccc2)oc2ccccc12 [flavone],chloride currents further stimulated to (forskolin stimulated currents are 100%),Calu-3 monolayers [2]; compound at 200 μM,128%
"C=C[C@@]1(C)CC(=O)[C@]2(O)[C@@]3(C)[C@@H](O)CCC(C)(C)[C@@H]3[C@H](O)[C@H](OC(C)=O)[C@@]2(C)O1 [forskolin, reference compound]",Cl secretion first stimulated with forskolin to,"Calu-3 airway epithelia; forskolin first, n=4",106±23 μA/cm^2
same,ISC further increased to,"Calu-3 airway epithelia; subsequent addition of forskolin after L-ascorbic acid, n=9",141±33 μA/cm^2
same,total stimulated ISC,[3],12.1±1.1 μA/cm^2
"O=C(CCc1ccc(O)cc1)c1c(O)cc(O)cc1O [phloretin, reference compound]",response to ascorbate in presence of SVCT inhibitor,"Calu-3 airway epithelia; Na-containing medium, pre-treatment with 200 μM phloretin",blunted
COc1cc(O)c2c(=O)c(-c3ccc(O)cc3)coc2c1 [prunetin],chloride currents further stimulated to (forskolin stimulated currents are 100%),Calu-3 monolayers [2]; compound at 100 μM,161%
"Oc1ccc(/C=C/c2cc(O)cc(O)c2)cc1 [reservatrol, trans-3,5,4′-trihydroxystilbene]",chloride currents further stimulated to (forskolin stimulated currents are 100%),Calu-3 monolayers [2]; compound at 100 μM,135%
same,transepithelial chloride currents in unstimulated tissue,Calu-3 monolayers [1]; [4],dose-dependently stimulated transepithelial chloride currents
C[C@@H]1O[C@@H](OC[C@H]2O[C@@H](Oc3c(-c4ccc(O)c(O)c4)oc4cc(O)cc(O)c4c3=O)[C@H](O)[C@@H](O)[C@@H]2O)[C@H](O)[C@H](O)[C@H]1O [rutin],chloride currents further stimulated to (forskolin stimulated currents are 100%),Calu-3 monolayers [2]; compound at 30 μM,149%
COc1ccc(-c2cc(=O)c3c(OC)cc(OC)cc3o2)cc1 [trimethoxy-apigenin],transepithelial chloride currents in unstimulated tissue,Calu-3 monolayers [1]; [4],dose-dependently stimulated transepithelial C1 currents
same,EC50,"Calu-3 monolayers [1]; unstimulated tissue, mucosal addition, kinetic analysis, read-out: estimated half maximal stimulatory dose",11.7 µM
fisetin,chloride currents further stimulated to (forskolin stimulated currents are 100%),Calu-3 monolayers [2]; compound at 100 μM,108%

# From patent publication US8138158B2, “Compositions and methods for therapy for diseases characterized by defective chloride transport” (Children's Hospital & Research Center at Oakland, priority 1997, dated 2012)
